Patent US20260022142A1, “MACROCYCLIC IMMUNOMODULATORS” (Bristol-Myers Squibb Company, priority 2022, published 2026)
Numbered stars: 1 amine (or outer) side, 2 acyl side, 3 side chain; on linkers, the order of the positions; unused ones are H or OH. Bridge positions count the residues as written; N and C are the ends. Square brackets hold non-standard residues; d marks the D form. Peptide text beside a SMILES is read from it. * marks the point of attachment. Phe(3,4-Cl2) = N[C@@H](Cc1ccc(Cl)c(Cl)c1)C(=O)O; Phe(3,4-F2) = N[C@@H](Cc1ccc(F)c(F)c1)C(=O)O; X9 = O=C([C@H](Cc1cc(F)c(F)cc1F)N[*:1])[*:2]; Bip = N[C@@H](Cc1ccc(-c2ccccc2)cc1)C(=O)O; Phe(3-Me) = Cc1cccc(C[C@H](N)C(=O)O)c1; Bta = N[C@@H](Cc1csc2ccccc12)C(=O)O; 4Pal = N[C@@H](Cc1ccncc1)C(=O)O; X1 = O=C(CN1CCN([*:1])CC1)[*:2]; Cha = N[C@@H](CC1CCCCC1)C(=O)O; Cit = NC(=O)NCCC[C@H](N)C(=O)O; 3Abz = Nc1cccc(C(=O)O)c1; Carboxymethyl = O=C(O)C*; Orn = NCCC[C@H](N)C(=O)O; Aun = NCCCCCCCCCCC(=O)O; Dab = NCC[C@H](N)C(=O)O; Dap = NC[C@H](N)C(=O)O; AEEA = NCCOCCOCC(=O)O

Molecular target: T1, PD-1/PD-L1 interaction (PE-labeled human PD-L1-Ig binding to Jurkat cell line over-expressing human PD-1) (Homo sapiens, UniProt Q15116)
T1 construct: expressed in transfected cells; host or cells: Jurkat
T1 sequence (Q15116 25-288): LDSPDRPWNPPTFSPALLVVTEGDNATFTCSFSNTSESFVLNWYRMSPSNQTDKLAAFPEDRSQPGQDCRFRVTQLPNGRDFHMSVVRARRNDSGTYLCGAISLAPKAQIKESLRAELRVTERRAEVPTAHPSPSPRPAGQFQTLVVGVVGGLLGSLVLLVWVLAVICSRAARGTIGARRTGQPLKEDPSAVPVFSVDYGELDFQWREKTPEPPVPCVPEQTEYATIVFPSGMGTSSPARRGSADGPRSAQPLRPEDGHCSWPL
Test: Jurkat-PD-1 Cell Binding High-Content Screening Assay (CBA)
Format: cell-based
Conditions: Jurkat cell line over-expressing human PD-1; PE-labeled PD-L1-Ig 20 nM final; read-out: Jurkat hPD1-PDL1 IC50
Summary of the method: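 Read-out is high-content imaging of cell-bound phycoerythrin-tagged PD-L1-Ig on fixed, Hoechst-counterstained Jurkat cells that over-express human PD-1. Compound exposure lasts 2 h at 37° C before the labeled ligand (20 nM final) is added for a further hour.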

In order of rising IC50:
1. Cc1cccc(C[C@@H]2NC(=O)[C@H](CC(=O)O)NC(=O)[C@H](Cc3ccc(OCC(=O)O)cc3)NC(=O)[C@H](CN)NC(=O)CSC[C@@H](C(=O)N[C@@H](CCN)C(=O)NCCCCCCCCCCC(=O)O)NC(=O)[C@@H](CO)NC(=O)[C@H](C(C)C)NC(=O)[C@H](CC3CCCCC3)NC(=O)[C@H](CCN)NC(=O)[C@@H](CC(C)C)NC(=O)[C@H](CCCN)NC(=O)[C@H](CCCNC(N)=O)NC(=O)[C@H](Cc3ccc(-c4ccccc4)cc3)NC(=O)[C@H](C(C)C)NC2=O)c1 [Compound 2000] ({CH2CO}-[Dap]Y(Carboxymethyl)D[Phe(3-Me)]V[Bip][Cit][Orn][dL][Dab][Cha]V[dS]C[Dab][Aun]-OH; thioether N-14)  14.3 nM
2. Cc1cccc(C[C@@H]2NC(=O)[C@H](CC(=O)O)NC(=O)[C@H](Cc3ccc(OCC(=O)O)cc3)NC(=O)[C@H](CN)NC(=O)CSC[C@@H](C(=O)N[C@@H](CCCCN)C(=O)NCCCCCCCCCCC(=O)O)NC(=O)[C@@H](CO)NC(=O)[C@H](C(C)C)NC(=O)[C@H](CC3CCCCC3)NC(=O)[C@H](CCN)NC(=O)[C@@H](CC(C)C)NC(=O)[C@H](CCCN)NC(=O)[C@H](C(C)C)NC(=O)[C@H](Cc3ccc(-c4ccccc4)cc3)NC(=O)[C@H](C(C)C)NC2=O)c1 [Compound 2001] ({CH2CO}-[Dap]Y(Carboxymethyl)D[Phe(3-Me)]V[Bip]V[Orn][dL][Dab][Cha]V[dS]CK[Aun]-OH; thioether N-14)  32.4 nM
3. CC(C)C[C@H]1NC(=O)[C@H](CCCN)NC(=O)[C@H](Cc2ccc(O)cc2)NC(=O)[C@H](Cc2ccc(-c3ccccc3)cc2)NC(=O)[C@H](Cc2ccc(OCC(=O)O)cc2)NC(=O)[C@H](Cc2ccc(Cl)c(Cl)c2)NC(=O)[C@H](CC(=O)O)NC(=O)[C@H](Cc2ccc(OCC(=O)O)cc2)NC(=O)[C@H](CN)NC(=O)CSC[C@@H](C(=O)N[C@@H](CCN)C(=O)NCCOCCOCC(=O)NCCCCCCCCCCC(=O)O)NC(=O)[C@H](CCCN)NC(=O)[C@H](C(C)C)NC(=O)[C@H](CC2CCCCC2)NC(=O)[C@H](CCN)NC1=O [Compound 1307] ({CH2CO}-[Dap]Y(Carboxymethyl)D[Phe(3,4-Cl2)]Y(Carboxymethyl)[Bip]Y[Orn][dL][Dab][Cha]V[Orn]C[Dab][AEEA][Aun]-OH; thioether N-14)  49.6 nM
4. CC(C)C[C@H]1NC(=O)[C@H](CCCN)NC(=O)[C@H](Cc2ccc(O)cc2)NC(=O)[C@H](Cc2ccc(-c3ccccc3)cc2)NC(=O)[C@H](C(C)C)NC(=O)[C@H](Cc2cc(F)c(F)cc2F)NC(=O)[C@H](CC(=O)O)NC(=O)[C@H](Cc2ccc(OCC(=O)O)cc2)NC(=O)[C@H](CN)NC(=O)CSC[C@@H](C(=O)N[C@@H](CCN)C(=O)NCCOCCOCC(=O)NCCCCCCCCCCC(=O)O)NC(=O)[C@H](CCCN)NC(=O)[C@H](C(C)C)NC(=O)[C@H](CC2CCCCC2)NC(=O)[C@H](CCN)NC1=O [Compound 1308] ({CH2CO}-[Dap]Y(Carboxymethyl)D[X9]V[Bip]Y[Orn][dL][Dab][Cha]V[Orn]C[Dab][AEEA][Aun]-OH; thioether N-14)  59.7 nM
5. CC(C)C[C@H]1NC(=O)[C@H](CCCN)NC(=O)[C@H](Cc2ccc(O)cc2)NC(=O)[C@H](Cc2ccc(-c3ccccc3)cc2)NC(=O)[C@H](Cc2ccc(OCC(=O)O)cc2)NC(=O)[C@H](Cc2csc3ccccc23)NC(=O)[C@H](CC(=O)O)NC(=O)[C@H](Cc2ccc(OCC(=O)O)cc2)NC(=O)[C@H](CN)NC(=O)CSC[C@@H](C(=O)N[C@@H](CCN)C(=O)NCCOCCOCC(=O)NCCCCCCCCCCC(=O)O)NC(=O)[C@H](CCCN)NC(=O)[C@H](C(C)C)NC(=O)[C@H](CC2CCCCC2)NC(=O)[C@H](CCN)NC1=O [Compound 1309] ({CH2CO}-[Dap]Y(Carboxymethyl)D[Bta]Y(Carboxymethyl)[Bip]Y[Orn][dL][Dab][Cha]V[Orn]C[Dab][AEEA][Aun]-OH; thioether N-14)  63.4 nM
6. CC(C)C[C@H]1NC(=O)[C@H](CCCN)NC(=O)[C@H](Cc2ccc(O)cc2)NC(=O)[C@H](Cc2ccc(-c3ccccc3)cc2)NC(=O)[C@H](C(C)C)NC(=O)[C@H](Cc2ccc(Cl)c(Cl)c2)NC(=O)[C@H](CC(=O)O)NC(=O)[C@H](Cc2ccc(OCC(=O)O)cc2)NC(=O)[C@H](CN)NC(=O)CSC[C@@H](C(=O)N[C@@H](CCN)C(=O)NCCOCCOCC(=O)NCCCCCCCCCCC(=O)O)NC(=O)[C@H](CCCN)NC(=O)[C@H](C(C)C)NC(=O)[C@H](CC2CCCCC2)NC(=O)[C@H](CCN)NC1=O [Compound 1310] ({CH2CO}-[Dap]Y(Carboxymethyl)D[Phe(3,4-Cl2)]V[Bip]Y[Orn][dL][Dab][Cha]V[Orn]C[Dab][AEEA][Aun]-OH; thioether N-14)  64.6 nM
7. CC(C)C[C@H]1NC(=O)[C@H](CCCN)NC(=O)[C@H](Cc2ccc(O)cc2)NC(=O)[C@H](Cc2ccc(-c3ccccc3)cc2)NC(=O)[C@H](Cc2ccc(OCC(=O)O)cc2)NC(=O)[C@H](Cc2ccc(O)cc2)NC(=O)[C@H](CC(=O)O)NC(=O)[C@H](Cc2ccc(OCC(=O)O)cc2)NC(=O)[C@H](CN)NC(=O)CSC[C@@H](C(=O)N[C@@H](CCN)C(=O)NCCOCCOCC(=O)NCCCCCCCCCCC(=O)O)NC(=O)[C@H](CCCN)NC(=O)[C@H](C(C)C)NC(=O)[C@H](CC2CCCCC2)NC(=O)[C@H](CCN)NC1=O [Compound 1311] ({CH2CO}-[Dap]Y(Carboxymethyl)DYY(Carboxymethyl)[Bip]Y[Orn][dL][Dab][Cha]V[Orn]C[Dab][AEEA][Aun]-OH; thioether N-14)  103 nM
8. CC(C)C[C@@H]1NC(=O)[C@H](Cc2c[nH]c3ccccc23)NC(=O)[C@H](CC(=O)O)NC(=O)[C@H](Cc2ccncc2)NC(=O)[C@H](Cc2ccc(OCC(=O)O)cc2)NC(=O)CSC[C@@H](C(=O)Nc2cccc(C(=O)NCCCCCCCCCCC(=O)O)c2)NC(=O)[C@H](CCCN)NC(=O)[C@H](C(C)C)NC(=O)[C@H](CC2CCCCC2)NC(=O)[C@H](CCN)NC(=O)[C@@H](CC(C)C)NC(=O)[C@H](CCCN)NC(=O)[C@H](C(C)C)NC(=O)[C@H](Cc2ccc(-c3ccccc3)cc2)NC1=O [Compound 1312] ({CH2CO}-Y(Carboxymethyl)[4Pal]DWL[Bip]V[Orn][dL][Dab][Cha]V[Orn]C[3Abz][Aun]-OH; thioether N-14)  105 nM
9. CC(C)C[C@H]1NC(=O)[C@H](CCCN)NC(=O)[C@H](Cc2ccc(O)cc2)NC(=O)[C@H](Cc2ccc(-c3ccccc3)cc2)NC(=O)[C@H](Cc2ccc(OCC(=O)O)cc2)NC(=O)[C@H](Cc2ccc(F)c(F)c2)NC(=O)[C@H](CC(=O)O)NC(=O)[C@H](Cc2ccc(OCC(=O)O)cc2)NC(=O)[C@H](CN)NC(=O)CSC[C@@H](C(=O)N[C@@H](CCN)C(=O)NCCOCCOCC(=O)NCCCCCCCCCCC(=O)O)NC(=O)[C@H](CCCN)NC(=O)[C@H](C(C)C)NC(=O)[C@H](CC2CCCCC2)NC(=O)[C@H](CCN)NC1=O [Compound 1313] ({CH2CO}-[Dap]Y(Carboxymethyl)D[Phe(3,4-F2)]Y(Carboxymethyl)[Bip]Y[Orn][dL][Dab][Cha]V[Orn]C[Dab][AEEA][Aun]-OH; thioether N-14)  109 nM
10. CC(C)C[C@@H]1NC(=O)[C@H](Cc2c[nH]c3ccccc23)NC(=O)[C@H](CC(=O)O)NC(=O)[C@H](Cc2ccncc2)NC(=O)[C@H](Cc2ccc(OCC(=O)O)cc2)NC(=O)CSC[C@@H](C(=O)N2CCN(CC(=O)NCCCCCCCCCCC(=O)O)CC2)NC(=O)[C@H](CCCNC(N)=O)NC(=O)[C@H](C(C)C)NC(=O)[C@H](CC2CCCCC2)NC(=O)[C@H](CCN)NC(=O)[C@@H](CC(C)C)NC(=O)[C@H](CCCN)NC(=O)[C@H](C(C)C)NC(=O)[C@H](Cc2ccc(-c3ccccc3)cc2)NC1=O [Compound 1314] ({CH2CO}-Y(Carboxymethyl)[4Pal]DWL[Bip]V[Orn][dL][Dab][Cha]V[Cit]C[X1][Aun]-OH; thioether N-14)  110 nM
